Results reported in US20190211099A1, “METHODS AND COMPOSITIONS FOR TREATING CANCER WITH SIGLEC-9 ACTIVITY MODULATORS” (KING'S COLLEGE LONDON, priority 2016, published 2019).

Legend:
Siglec-9 [1] = target: T1, Siglec-9 (Homo sapiens, UniProt Q9Y336); experiment: Binding of biotinylated MUC1 glycoforms to plate-bound recombinant Siglec fusion proteins; details: 2 μg/ml biotinylated MUC1 glycoform, 4 hours; compared with Siglecs 3, 7 and 10
Experimental: Binding was enhanced when cells were pre-treated with 0.04 U/ml neuraminidase for 30 minutes at 37° C. in PBS (FIG. 3C), which removes competing cis-binding sialic acid sites from the surface of the cells. As this pattern is characteristic of binding to Siglecs (Macauley et al. (2014) NAT. REV. IMMUNOL. 14: 653-666), MUC1-ST binding to Siglecs was tested as follows: mouse anti human IgG was bound to plastic O/N and the plate was blocked using 1% BSA in PBS. Recombinant human Siglec (3, 5, 7, 8, 9 and 10) fusion proteins were added at 2 μg/mL for 2 hours. After incubation with 2 μg/ml biotinylated MUC1 glycoforms for 4 hours, O.D. was measured after the addition of streptavidin-HRP and substrate. […] Although Siglecs 3, 7 and 9 are expressed by monocytes and macrophages (FIG. 3D), a blocking antibody to Siglec-9 inhibited 80-95% of the MUC1-ST binding to these cells (FIGS. 2G-2I, 3E, and 5) indicating this is the dominant binding Siglec. […] Importantly, Siglec-9 bound to the breast cancer cell line T47D that expresses MUC1 carrying sialylated Core-1 glycans (FIG. 2J). Finally, isolated monocytes were bound to 10 μg/mL biotinylated MUC1-ST or 10 μg/mL biotinylated polyacrylamide carrying the ST glycan (PAA-ST; Glycotech).
Target sequence in this assay (Q9Y336 with tags, fused parts or gaps limits assumed): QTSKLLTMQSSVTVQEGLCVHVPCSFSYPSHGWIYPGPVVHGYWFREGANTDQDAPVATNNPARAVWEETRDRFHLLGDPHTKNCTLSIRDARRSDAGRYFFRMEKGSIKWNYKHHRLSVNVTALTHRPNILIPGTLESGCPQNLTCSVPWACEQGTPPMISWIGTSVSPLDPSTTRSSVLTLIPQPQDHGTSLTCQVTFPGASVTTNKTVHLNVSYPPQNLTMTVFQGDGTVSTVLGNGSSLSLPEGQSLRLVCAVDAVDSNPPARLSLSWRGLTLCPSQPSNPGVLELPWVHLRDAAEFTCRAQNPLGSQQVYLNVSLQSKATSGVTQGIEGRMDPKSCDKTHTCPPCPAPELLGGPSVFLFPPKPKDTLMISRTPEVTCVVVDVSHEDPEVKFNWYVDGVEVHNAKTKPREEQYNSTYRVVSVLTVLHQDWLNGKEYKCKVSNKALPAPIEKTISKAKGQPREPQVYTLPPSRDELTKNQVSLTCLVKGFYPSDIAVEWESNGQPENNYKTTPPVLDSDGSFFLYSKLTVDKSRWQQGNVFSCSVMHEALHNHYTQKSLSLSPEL

macrophages = experiment: Phenotype of MUC1-ST treated macrophages (CD206, CD163, PD-L1; flow cytometry); assay type: cell-based, human
Experimental: Both the cell phenotype staining and neutralization studies described in the Examples were performed using the following antibodies (all anti-human): Siglec-9 (Biotechne; 191240), Siglec-9 FITC (Biotechne; 191240), Siglec-3 (Biotechne; 6C5/2), Siglec-7 (Biotechne; AF1138), Siglec-3 FITC (BD; P67.6), Siglec-7 PE (Biolegend; 6-434), Siglec-10 PE (Biolegend; 5G6), Siglec-1 (abcam; 7D2), HLA-DR FITC (Beckman Coulter; IM0463U), CD16 FITC (Biolegend; B73.1), CD14 FITC (BD 555397), CD69 PE (Beckman Coulter; IM1943), CD25 FITC (ABX228FITC), CD86 PE (Beckman Coulter; IM2729U), CD40 FITC (BD 555588), CD83 PE (Beckman Coulter; IM2218), CD163 PE (Biolegend; GHI/61), CXCR1 FITC (BD Pharmongen; 551126), CD45 PC5 (Beckman Coulter; IM2653U), CD206 PE (ebioscience; 19.2), PD-L1 PE (Biolegend; 29E.2A3), CD36 (Santa Cruz; H-300), TGFbetaRII (Bio-Techne; AF-241), IL-6Rα (Tocilizumab; Roche. A generous gift from Dr. Valerie Corrigall). Cells were suspended in PBS+0.5% BSA (2×10^5 cells/100 μL/sample) and incubated with Abs according to the manufacturer's instructions. At least 1×10^4 events were evaluated using either Epics XL, (Beckman Coulter) or FACSCalibur (BD Biosciences) flow cytometers. Analysis was performed using either WinMDI or Cellquest software.

SHP1 = experiment: Western blot for phosphorylation of SHP1 in monocytes; assay type: cell-based, human; details: primary monocytes
Experimental: A Western blot to assay phosphorylation of SHP, which is recruited by phosphorylated Siglec-9 (Avril et al. (2004) supra) was conducted. Monocytes were incubated with MUC1-ST and lysed as described above, and the resulting lysates were separated by SDS PAGE (10% gel) before being transferred, blocked and probed with anti-SHP1 (Santa Cruz), anti-phospho SHP1 (Abcam) and appropriate secondary antibodies. Phosphorylation of SHP was not observed after MUC1-ST binding to Siglec-9 on primary monocytes (FIG. 13C) although again, phosphorylation of SHP1 was observed when Siglec-9 was activated via antibody cross-linking. No activation of SHP2 was observed.

isolated monocytes = experiment: Factors released by monocytes after MUC1-ST treatment (protein array, ELISA); assay type: cell-based, human; details: 100 μg/10^6 cells MUC1-ST, 48 hours
Experimental: ELISAs for IL-6, IL-12p70, TGF-β1, PAI-1, M-CSF, EGF, SHP2, phospho-SHP2 (Biotechne) were all carried out as per manufacturer's instructions.
Recombinant MUC1-ST was bound to monocytes and the factors released determined using a protein array as follows. Briefly, isolated monocytes were treated with 100 μg/10^6 cells MUC1-ST for 4 hours at 4° C., washed and incubated at 37° C. for 48 hours in AIM-V serum-free media. Supernatant was taken and cytokine production was assessed using a 102 protein array (Bio-Techne).

monocytes = experiment: Nitric oxide release by monocytes (Griess method); assay type: cell-based, human
Experimental: MUC1-ST was further evaluated for its ability to produce pro-inflammatory nitric oxide, a product of the arginine processing enzyme (Thompson et al. (2015) CARCINOGENESIS 36: S232-S253). Supernatant was assessed using the Griess method according to the manufacturer's instructions (Biotium).

Siglec-9 [2] = target: T1, Siglec-9; experiment: Phosphorylation of Siglec-9 (ELISA, phospho immunoreceptor array); assay type: cell-based; details: monocytes and macrophages; antibody cross-linked
Experimental: To determine the intracellular effects of MUC1-ST binding to Siglec-9, the ability of MUC1-ST to induce phosphorylation of the immunoreceptor tyrosine-based inhibitory motif (ITIM) of Siglec-9 thereby inducing intracellular inhibitory signals (Avril et al. (2004) J. IMMUNOL. 173: 6841-6849) was assessed. Without wishing to be bound by theory, it was hypothesized that this was likely occur as the repeated glycans found on MUC1 could be able to crosslink this lectin. To investigate the effects of MUC1-ST on Siglec-9 phosphorylation, monocytes or differentiated M-CSF macrophages were treated with MUC1-ST or cross-linked anti-Siglec-9 antibody at 4° C. for 4 hours or 30 minutes, respectively, and were then brought to 37° C. for 15 minutes, and lysed in the presence of pervanadate. Lysates were assessed for the phosphorylation of Siglec-9 using an ELISA or a 59 phospho immunoreceptor array (Bio-Techne) according to the manufacturer's instructions. For the ELISA, anti-human Siglec-9 was plated overnight (O/N) on plastic before being blocked with 1% BSA in PBS. Clarified supernatant was added and incubated for 2 hours. After incubation with 1 μg/mL biotinylated anti phospho-tyrosine, O.D. at 450 nm was measured after the addition of streptavidin-HRP and substrate.
Target sequence in this assay (Q9Y336 18-463): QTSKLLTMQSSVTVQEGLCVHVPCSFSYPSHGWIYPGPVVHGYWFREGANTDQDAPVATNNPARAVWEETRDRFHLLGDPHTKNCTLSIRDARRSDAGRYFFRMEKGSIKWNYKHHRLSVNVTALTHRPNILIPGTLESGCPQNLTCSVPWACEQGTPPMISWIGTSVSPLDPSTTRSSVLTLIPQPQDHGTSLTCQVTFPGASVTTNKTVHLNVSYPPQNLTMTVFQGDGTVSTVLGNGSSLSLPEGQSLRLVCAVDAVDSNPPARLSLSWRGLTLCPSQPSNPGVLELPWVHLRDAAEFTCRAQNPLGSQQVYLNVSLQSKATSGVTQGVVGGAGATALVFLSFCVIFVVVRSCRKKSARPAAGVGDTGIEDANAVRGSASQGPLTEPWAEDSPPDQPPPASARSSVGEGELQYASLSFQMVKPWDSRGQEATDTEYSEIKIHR

binding to recombinant Siglec fusion protein (Siglec-9 [1]): greatest binding
phosphorylation of Siglec-9 (Siglec-9 [2]): inhibited
Substance: NeuAcα2,3Galβ1-3GalNAc linked via a Ser/Thr of MUC1 [MUC1-ST]
expression of immune checkpoint ligand PD-L1 (macrophages): increased expression
levels of mannose receptor (CD206) and scavenger receptor CD163 (macrophages): increased levels
phosphorylation of SHP (SHP1): not observed
secretion of factors associated with inflammation and tumor progression (IL-6, M-CSF, PAI-1 validated by ELISA) (isolated monocytes): induced
nitric oxide production (monocytes): produced nitric oxide
